Patent US7258878B2, “Anti-microbial composition and methods of use thereof” (Kimberly-Clark Worldwide, Inc., priority 2004, dated 2007)
Read-outs that look alike come from different tables or passages of the source.

How the values were obtained:
[1] = system: S. aureus (ATCC 6538; Gram positive bacteria); assay: Zone of inhibition test against S. aureus; type: cell-based, Staphylococcus aureus; conditions: for zone of inhibition at 1000 µg/mL / zone of inhibition at 10000 µg/mL: Staphylococcus aureus
Experimental: (§1) Natural compounds were evaluated for anti-microbial activity using the zone of inhibition test (ASTM E214901). The activity against five types of microorganisms: Staphylococcus aureus, Pseudomonas aeruginosa, Escherichia coli, Aspergillis niger and Candida albicans, was evaluated. These microorganisms represent gram positive and gram negative bacteria, fungi and yeast.
(§2) The compounds were tested for activity against E. coli (ATCC 8739; Gram negative bacteria), S. aureus (ATCC 6538; Gram positive bacteria), P. aeruginosa (ATCC 9027; Gram negative bacteria), C. albicans (ATCC 10231; yeast) and A niger (ATCC 16404; fungus) at 1 and 10 mg/ml concentrations by using the zone of inhibition method along with triclosan as a positive control.
(§3) The following natural compounds were tested for their anti-fungal properties: eucalyptol, cineole (SIGMA C-8144); gallic acid, 3,4,5-trihydroxybenzoic acid (SIGMA G-7384); methyl jasmonate, 95% (Aldrich 39270-7); and naringin: >95%, made from citrus fruit (SIGMA N-1376). A DMSO/water (75/25 by volume) mixture was used as the carrying solvent for each compound tested. The compounds were tested at 1 and 10 mg/ml concentrations by using the zone of inhibition method along with triclosan as a positive control.
(§4) Microorganism cultures of 10^5 cfu (colony forming units)/ml in a 1×PBS (phosphate buffered saline) solution were used. One ml of the solution was plated on a trypticase soy agar plate (TSA) and allowed to grow at 35° C. for four hours. 4 mm diameter wells were then punched in each TSA plate and 100 μl of each compound being tested was added to these wells. The plates were incubated overnight at 35° C. Lawn clearing was measured the next day as an indicator of antimicrobial activity.

[2] = system: C. albicans (ATCC 10231; yeast); assay: Zone of inhibition test against C. albicans; type: cell-based, Candida albicans; conditions: for zone of inhibition at 1000 µg/mL / zone of inhibition at 10000 µg/mL: Candida albicans; for Selective inhibition of C. albicans (conclusion in words): zone of inhibition, five organisms tested, 1 and 10 mg/ml
Experimental: as §1, §2, §3, §4

[3] = system: E. coli (ATCC 8739; Gram negative bacteria); assay: Zone of inhibition test against E. coli; type: cell-based, Escherichia coli; conditions: for zone of inhibition at 1000 µg/mL / zone of inhibition at 10000 µg/mL: Escherichia coli
Experimental: as §1, §2, §3, §4

[4] = system: A niger (ATCC 16404; fungus); assay: Zone of inhibition test against A. niger; type: cell-based, Aspergillis niger; conditions: for zone of inhibition at 1000 µg/mL / zone of inhibition at 10000 µg/mL: Aspergillus niger
Experimental: as §1, §2, §3, §4

[5] = system: P. aeruginosa (ATCC 9027; Gram negative bacteria); assay: Zone of inhibition test against P. aeruginosa; type: cell-based, Pseudomonas aeruginosa; conditions: for zone of inhibition at 1000 µg/mL / zone of inhibition at 10000 µg/mL: Pseudomonas aeruginosa
Experimental: as §1, §2, §3, §4

[6] = system: Lactobacillus acidophilus (ATCC 11975); assay: Zone of inhibition test against Lactobacillus acidophilus; type: cell-based; conditions: sample size 100 μl; for Zone of Inhibition: duplicate
Experimental: as §4
Five of these compounds were tested against Lactobacillus acidophilus (ATCC 11975). None of the compounds tested had antimicrobial activity against lactobacilli, a microorganism normally found in humans, specifically in the vagina. Due to their ability to derive lactic acid from glucose, these bacteria create an acidic environment that inhibits growth of many bacterial species that can lead to urogenital infections. Lactobacillus is generally harmless to humans, rarely inciting harmful infections or diseases. Thus, these compounds can be effectively utilized to develop products to address infections arising from Candida, Aspergillus and related species without destroying the normal balance of microbial species found in human gastrointestinal tract.
Gallic acid, 3,4,5-trihydroxybenzoic acid (SIGMA G-7384); eucalyptol, cineole (SIGMA C-8144); naringin: >95%, made from citrus fruit (SIGMA N-1376), and methyl jasmonate, 95% (Aldrich 39270-7) were tested in two concentrations (1 and 10 mg/ml) in DMSO:water (75:25) along with positive control (chlorhexidine 5 mg/ml in 75:25 DMSO:water) and a negative control (75:25 DMSO:water). All tests were conducted in duplicate in a zone of inhibition study (as described in Example 1).

[7] = ATCC6538, concentration 1 mg/ml, 100 μl per well, DMSO/water 75/25, read-out: Zone of inhibition S. aureus
[8] = ATCC6538, concentration 10 mg/ml, 100 μl per well, DMSO/water 75/25
[9] = ATCC10231, concentration 1 mg/ml, 100 μl per well, DMSO/water 75/25, read-out: Zone of inhibition C. albicans
[10] = ATCC10231, concentration 10 mg/ml, 100 μl per well, DMSO/water 75/25
[11] = ATCC8739, concentration 1 mg/ml, 100 μl per well, DMSO/water 75/25, read-out: Zone of inhibition E. coli
[12] = ATCC8739, concentration 10 mg/ml, 100 μl per well, DMSO/water 75/25
[13] = ATCC16404, concentration 1 mg/ml, 100 μl per well, DMSO/water 75/25, read-out: Zone of inhibition A. niger
[14] = ATCC16404, concentration 10 mg/ml, 100 μl per well, DMSO/water 75/25
[15] = ATCC9027, concentration 1 mg/ml, 100 μl per well, DMSO/water 75/25, read-out: Zone of inhibition P. aeruginosa
[16] = ATCC9027, concentration 10 mg/ml, 100 μl per well, DMSO/water 75/25
[17] = 1 mg/ml in DMSO:water 75:25, inoculum 5.8 × 10^5 CFU/ml
[18] = 10 mg/ml in DMSO:water 75:25, inoculum 5.8 × 10^5 CFU/ml
[19] = concentration 1 mg/ml, 100 μl per well, DMSO/water 75/25
[20] = concentration 10 mg/ml, 100 μl per well, DMSO/water 75/25

Structure (SMILES)	zone of inhibition at 1000 µg/mL [1, 7] [mm]	zone of inhibition at 10000 µg/mL [1, 8] [mm]	zone of inhibition at 1000 µg/mL [2, 9] [mm]	zone of inhibition at 10000 µg/mL [2, 10] [mm]	Selective inhibition of C. albicans (conclusion in words) [2]	zone of inhibition at 1000 µg/mL [3, 11] [mm]	zone of inhibition at 10000 µg/mL [3, 12] [mm]	zone of inhibition at 1000 µg/mL [4, 13] [mm]	zone of inhibition at 10000 µg/mL [4, 14] [mm]	zone of inhibition at 1000 µg/mL [5, 15] [mm]	zone of inhibition at 10000 µg/mL [5, 16] [mm]	Zone of Inhibition [6, 17]	Zone of Inhibition [6, 18]	Zone of inhibition S. aureus [1, 19] [mm]	Zone of inhibition S. aureus [1, 20] [mm]	Zone of inhibition C. albicans [2, 19] [mm]	Zone of inhibition C. albicans [2, 20] [mm]	Zone of inhibition E. coli [3, 19] [mm]	Zone of inhibition E. coli [3, 20] [mm]	Zone of inhibition A. niger [4, 19] [mm]	other results
CC12CCC(CC1)C(C)(C)O2 [Eucalyptol, 1,3,3-Trimethyl-2-oxabicyclo[2,2,2]-octane]	0	0	3	3	selective inhibitors of C. albicans with no effect on the other four organisms tested	0	0	0	0	0	0	None	None	–	–	–	–	–	–	–	–
O=C(O)c1cc(O)c(O)c(O)c1 [Gallic acid, 3,4,5-trihydroxybenzoic acid]	0	0	5	4	selective inhibitors of C. albicans with no effect on the other four organisms tested	0	0	0	0	0	0	None	None	–	–	–	–	–	–	–	–
CC/C=C\CC1C(=O)CCC1CC(=O)OC (centres unmarked) [Methyl jasmonate, methyl jasmonate]	–	–	–	–	selectively inhibit both C. albicans and A. niger	–	–	–	–	–	–	None	None	0	2	0	7.5	0	0	0	Zone of inhibition A. niger [4, 20]: 5 mm; Selective inhibition of A. niger (conclusion in words) ([4]; zone of inhibition, five organisms tested, 1 and 10 mg/ml): selectively inhibit both C. albicans and A. niger; Zone of inhibition P. aeruginosa [5, 19]: 0 mm; Zone of inhibition P. aeruginosa [5, 20]: 0 mm
C[C@@H]1O[C@@H](O[C@H]2[C@H](Oc3cc(O)c4c(c3)OC(c3ccc(O)cc3)CC4=O)O[C@H](CO)[C@@H](O)[C@@H]2O)[C@H](O)[C@H](O)[C@H]1O (stereo partly drawn) [Naringin, 7-[[2-O-(6-Deoxy-α-L-mannopyrano-syl)-β-D-glucopyranosyl]oxy]-2,3-dihydro-5-hydroxy-2-(4-hydroxyphenyl)-4H-1-benzopyran-4-one]	–	–	–	–	selective inhibitors of C. albicans with no effect on the other four organisms tested	–	–	–	–	–	–	None	None	0	0	3	3.5	0	0	0	Zone of inhibition A. niger [4, 20]: 0 mm; Zone of inhibition P. aeruginosa [5, 19]: 0 mm; Zone of inhibition P. aeruginosa [5, 20]: 0 mm
[H]/N=C(\N/C(=N/[H])NCCCCCCNC(=N)NC(=N)Nc1ccc(Cl)cc1)Nc1ccc(Cl)cc1 [Positive control, chlorhexidine, reference compound]	–	–	–	–	–	–	–	–	–	–	–	–	–	–	–	–	–	–	–	–	zone of inhibition at 5000 µg/mL ([6]; Lactobacillus acidophilus, ATCC11975, positive control, chlorhexidine 5 mg/ml in 75:25 DMSO:water, inoculum 5.8 × 10^5 CFU/ml): 6 mm
Oc1cc(Cl)ccc1Oc1ccc(Cl)cc1Cl [Triclosan, triclosan, reference compound]	–	–	–	–	–	–	–	–	–	–	–	–	–	–	–	–	–	–	–	–	zone of inhibition at 1000 µg/mL ([1]; ATCC6538, read-out: Zone of inhibition S. aureus): 10 mm; zone of inhibition at 1000 µg/mL ([2]; ATCC10231, read-out: Zone of inhibition C. albicans): 8.5 mm; zone of inhibition at 1000 µg/mL ([3]; ATCC8739, read-out: Zone of inhibition E. coli): 11 mm; zone of inhibition at 1000 µg/mL ([4]; ATCC16404, read-out: Zone of inhibition A. niger): 10 mm; zone of inhibition at 1000 µg/mL ([5]; ATCC9027, read-out: Zone of inhibition P. aeruginosa): 0 mm
